Measurements from patent US20210030646A1, “AN ANTIMICROBIAL COMPOSITION COMPRISING ESSENTIAL OIL AND ANTIMICROBIAL LIPID” (Conopco, Inc., d/b/a UNILEVER, priority 2017, published 2021).

Tested on: P. acnes (ATCC 6919)
Test: ΣFIC assay against P. acnes (checkerboard MIC, alamar blue)
Type: cell-based, Propionibacterium acne (P. acnes)
Settings: P. acnes ATCC 6919 in LB, anaerobic 37° C. 50 hours, lowest concentration giving complete growth inhibition; for MIC: Cutibacterium acnes, ATCC6919, single active alone, read-out: MIC (Minimum Inhibition Concentration)
Description: Synergistic interaction between the essential oil active and the AML compounds was determined using the ΣFIC assay against P. acnes. A brief description of the method is given below.
Methods: ΣFIC Assay Against P. acnes
P. acnes (ATCC 6919) is inoculated on Reinforced Clostridial Medium Agar plate (RCMA, solution A) and cultured anaerobically in an anaerobic jar at 37° C. for 72 to 96 hours. A single colony was cultured into Reinforced Clostridial Medium (RCM, solution B) and incubated anaerobically at 37° C. for 72 to 96 hours. Final cell density is adjusted to around 5×10^7 cells/ml by diluting using RCM. Then the inoculum is further diluted 1:1000 into Luria-Bertani medium (LB, solution C) to get around 5*10^4 cell/ml.
Essential oil active was serially diluted (2-fold) to prepare in a range of 10 to 10,000 ppm in the LB growth medium. The AML compound was serially diluted (2-fold) to prepare in a range of 15.6 to 1000 ppm for sapienic acid, and palmitoleic acid; and 2-125 ppm for other AMLs in the LB growth medium.
Binary combinations of essential oil and AML compound were prepared in 96-well plate by mixing 20 μl of essential oil solution with 20 μl of AML compound. The solution in each well were further mixed with 160 μl of P. acnes in LB. The final cell density in the testing plate is around 4*10^4 cell/ml, and the final concentration of actives in each well of the 96-well plate were shown below.
The fatty acid AML sapienic acid and palmitoleic acid compound concentrations (in ppm): 100, 50, 25, 12.5, 6.25, 3.13, 1.56, and 0. The sphingosine AML compound concentrations (in ppm): 12.5, 6.3, 3.1, 1.6, 0.8, 0.4, 0.2 and 0.
The plate was incubated anaerobically at 37° C. for 50 hours. Then 20 μl of alamar blue (0.01%) was added into each well with a further incubation aerobically for two to three days to observe the color change. Red color indicates microbial growth and the non-changing blue color indicates no growth. In addition, it was also confirmed that the testing compound alone will not cause color change of alamar blue with a control mixture without adding microbes.
The MIC is defined as the absolute lowest concentration of active that provides complete microbial growth inhibition as indicated by the blue color of alamar blue under the tested condition.
The differing behaviour of inhibitory antimicrobials in isolation and mixtures have been widely explored using the concept of the Fractional Concentration (FC) and Fractional Inhibitory Concentration (FIC). The parameter can be defined as follows: […]
These relationships can be expressed mathematically by summing the fractional MIC values for all the components present in the mixture to give the “fractional inhibition index”. There is no consistent approach in the academic or patent literature in defining precise limiting ΣFIC values that differentiate synergy from additivity or antagonism. In this study, we have adopted a liberal approach defining any binary mixture with ΣFIC<0.9 as showing evidence of synergistic behavior.
ΣFIC=FIC (component 1)+FIC (component 2)
ΣFIC=1 corresponds to additive microbial activity
ΣFIC>1 corresponds to antagonistic microbial activity
ΣFIC<0.9 corresponds to synergistic microbial activity
Based on the concentration range of the essential oil actives (0 to 1000 ppm) and the AML compound (0 to 100 ppm) at which the experiments were carried out, the ΣFIC of the combinations is given below in Table-1.

SMILES	MIC (Minimum Inhibition Concentration) (single active alone) [ppm]	MIC [µg/mL]
CCCCCCCCCCCCCCC[C@@H](O)[C@@H](N)CO [dihydrosphingosine]	0.2	–
CCCCCC/C=C\CCCCCCCC(=O)O [palmitoleic acid]	–	1
CCCCCCCCCCCCCC[C@@H](O)[C@@H](O)[C@@H](N)CO [phytosphingosine]	–	0.2
CCCCCCCCCCCCC/C=C/[C@@H](O)[C@@H](N)CO [sphingosine]	–	0.4
Cc1ccc(C(C)C)c(O)c1 [thymol]	–	62.5
